“And” between values parts separate entries of the source, which are not always exact repeats. Equal values may be shown once.
Assays:
PBMC = test: Proliferative response of PBMC (stimulation index); format: cell-based, human; details: one line per subject
Excerpt: (§1) Blood from ACD patients or control individuals were obtained by venipuncture and collected in sterile heparinised glass vials. Peripheral blood mononuclear cells (PBMC) were separated by density gradient centrifugation over Ficoll-Hypaque. After separation, PBMC were washed twice in medium (RPMI 1640 containing glutamin, Hepes, Penicillin/Streptomycin and 10% fetal calf serum (FCS)) and used fresh for experiments. Alternatively, PBMC were frozen in 90% FCS and 10% dimethylsulfoxide and kept in liquid nitrogen until tested. Prior to being tested, frozen cells were thawed at 37° C. and medium was added dropwise whereafter the cells were washed twice with medium.
The PBMC were stimulated with various concentrations of NiCl2 and both proliferative responses and cytokine responses were analysed. NiCl2 at a stock concentration of 50 mM was mixed with medium and incubated for more than five minutes before being added to cells. PBMC diluted to a cell concentration of 4-6×10^6 cells/ml were mixed with an equal volume of NiCl2 diluted in medium resulting in a final concentration of 2×10^6 cells/ml and NiCl2 at concentrations ranging from 10-100 μM. The cell suspensions were incubated in plastic vials for 4 h at 37° C. in a humidified incubator. […]

IL-4 producing PBMC = test: IL-4 ELISpot assay; format: cell-based, human; details: for IL-4 producing cells/200 000 PBMC after stimulation with 50 μM NiCl2 / IL-4 producing cells/200 000 PBMC, 50-0 / IL-4 producing cells/200 000 PBMC after stimulation with 100 μM NiCl2 / IL-4 producing cells/200 000 PBMC, 100-0: one line per subject; for IL-4 producing cells/200 000 PBMC, 50-0: 50 μM NiCl2 after subtraction of spontaneous spots; for IL-4 producing cells/200 000 PBMC, 100-0: 100 μM NiCl2 after subtraction of spontaneous spots
Excerpt: as §1
(§2) The PBMC were stimulated with various concentrations of NiCl2 and both proliferative responses and cytokine responses were analysed. NiCl2 at a stock concentration of 50 mM was mixed with medium and incubated for more than five minutes before being added to cells. PBMC diluted to a cell concentration of 4-6×10^6 cells/ml were mixed with an equal volume of NiCl2 diluted in medium resulting in a final concentration of 2×10^6 cells/ml and NiCl2 at concentrations ranging from 10-100 μM. The cell suspensions were incubated in plastic vials for 4 h at 37° C. in a humidified incubator. In parallel with incubating PBMC with NiCl2, PBMC at the same concentration were incubated with mitogen (1 μg phytohemagglutinin (PHA)/ml), control antigens (10 μg tetanus toxoid (TT) or purified protein derivative (PPD)/ml) or in the absence of stimuli.
Matched pairs of monoclonal antibodies (mAb) to human IL-4, IL-5 or IL-13 were used for the ELISpot assays (Mabtech AB, Stockholm, Sweden). For each pair, one mAb was used as a capture mAb: 82.4 (IL-4), TRFK5 (IL-5) and IL13-I (IL-13) and the other for detection, 12.1 (IL-4), 5A10 (IL-5) and IL13-II (IL-13). MAbs used for detection were biotinylated.
Ninetysix-well plates with polyvinylidene difluoride membranes (MAIPS45-10, Millipore) were treated with 100 μl of 70% EtOH for 2-10 min followed by six washes with 200 μl sterile deionized H2O. To each well, 100 μl of capture mAb at a concentration of 15 μg/ml in phosphate-buffered saline (PBS) was added and incubated over night at +4° C. The plates were washed three times with 200 μl or sterile PBS and three times with 200 μl medium containing 2% FCS. PBMC incubated for 4 h with or without stimuli in test tubes were suspended and 100 μl cell suspension (2×10^5 cells) was added to each well. After an additional incubation of 44 h, the wells were emptied and washed six times with 200 μl PBS. Biotinylated detection mAb at 1 μg/ml in PBS containing 0.5% FCS was added at a volume of 100 μl and incubated for 2 h at room temperature whereafter the wells were washed six times with PBS. Subsequently, 100 μl of SA-ALP (Streptavidin-Alkaline phosphatase, Mabtech) at 50 ng/ml in PBS with 0.5% FCS was added to each well and incubated for 1 h followed by washing in PBS six times before developing the wells with 100 μl nitroblue tetraxolium (NBT)/5-bromo-4-chloro-3-indolyl phosphate (BCIP) substrate (Sigma) for approximately 1 h. After rinsing the plates with tap water, the plates were dried and spots were counted using a light microscope.
(§3) Matched pairs of monoclonal antibodies (mAb) to human IL-4, IL-5, IL-13 or IFN-γ were used for ELISpot assays (Mabtech AB, Stockholm, Sweden). As in Example 4 above, for each pair, one mAb was used as a capture mAb and the other for detection. MAbs used for detection were biotinylated.
Ninetysix-well plates with polyvinylidene difluoride membranes (MAIPS45-10, Millipore) were treated with 100 μl of 70% EtOH for 2-10 min followed by six washes with 200 μl sterile deionized H2O. To each well, 100 μl of capture mAb at a concentration of 15 μg/ml in phosphate-buffered saline (PBS) was added and incubated over night at +4° C. The plates were washed three times with 200 μl or sterile PBS and three times with 200 μl medium containing 2% FCS. […]

IL-5 producing PBMC = test: IL-5 ELISpot assay; format: cell-based, human; details: for IL-5 production in response to NiCl2 (ELISpot): 50 μM NiCl2, FIG. 1
Excerpt: as §1, §2
(§4) Matched pairs of monoclonal antibodies (mAb) to human IL-4, IL-5 or IL-13 were used for the ELISpot assays (Mabtech AB, Stockholm, Sweden). […]
(§5) Ninetysix-well plates with polyvinylidene difluoride membranes (MAIPS45-10, Millipore) were treated with 100 μl of 70% EtOH for 2-10 min followed by six washes with 200 μl sterile deionized H2O. […] After rinsing the plates with tap water, the plates were dried and spots were counted using a light microscope. […]

IL-13 producing PBMC = test: IL-13 ELISpot assay; format: cell-based, human; details: for IL-13 production in response to NiCl2 (ELISpot): 50 μM NiCl2, FIG. 1
Excerpt: as §1, §2, §4, §5

IFN-γ producing PBMC = test: IFN-γ ELISpot assay; format: cell-based, human; details: Kathon stimulation, spontaneous spots subtracted; allergic individuals, one line per patient
Method: Peripheral blood mononuclear cells (PBMC) were obtained from Kathon (methylisothiazolinone) allergy patients or control individuals as described in Example 2.
The PBMC were stimulated with Kathon (methylisothiazolinone) and cytokine responses were analysed.
as §3
Ninetysix-well plates with polyvinylidene difluoride membranes (MAIPS45-10, Millipore) were treated with 100 μl of 70% EtOH for 2-10 min followed by six washes with 200 μl sterile deionized H2O. To each well, 100 μl of capture mAb at a concentration of 15 μg/ml in phosphate-buffered saline (PBS) was added and incubated over night at +4° C. The plates were washed three times with 200 μl or sterile PBS and three times with 200 μl medium containing 2% FCS. PBMC incubated for 4 h with or without stimuli in test tubes were suspended and 100 μl cell suspension (2×10^5 cells) was added to each well. After an additional incubation of 44 h, the wells were emptied and washed six times with 200 μl PBS. […] After rinsing the plates with tap water, the plates were dried and spots were counted using a light microscope.

[1] = test system: ACD patients and control individuals; test: Epicutaneous patch test; format: in vivo, human; details: 48 h
Method: Prior to the patch testing of the control group, blood samples for ELISpot analysis were taken to avoid an impact of the patch test on the ELISpot analysis. Epicutaneous patch tests using 5% NiSO4 in petrolatum was applied for 48 h whereafter the reaction, sites were inspected. […] All ACD patients were selected based on previous patch tests giving scores of 2+ or 3+ having 3+ as the highest score.
Prior to the patch testing of the control group, blood samples for ELISpot analysis were taken to avoid an impact of the patch test on the ELISpot analysis. Epicutaneous patch tests were applied for 48 h whereafter the reaction sites were inspected. […] This patient also gave a negative result in the ELISpot assay (see Table 2).

[2] = PBMC from allergic individuals (n=8)
[3] = PBMC from non-allergic individuals (n=7)
[4] = Kathon stimulation, spontaneous spots subtracted, allergic individuals, one line per patient

## [Cl][Ni][Cl] [NiCl2]
PBMC; PBMC of allergic group
  Proliferation (SI) (50 μM NiCl2): higher in the group of allergic individuals and 15.9 and 8.4 and 15.4 and 16.2 and 11.8 and 24.9 and 11.0 and 31.6 and 44.8 and 10.1 and 92.2
PBMC; PBMC of non-allergic group
  Proliferation (SI) (50 μM NiCl2): 3.1 (2×) and 0.9 and 1.2 and 2.0 and 3.3 and 6.8 and 5.1 and 8.2
IL-4 producing PBMC; 10 μM NiCl2, data not shown
  IL-4 ELISpot mean values, allergic versus non-allergic group: higher mean values for the allergic group
IL-4 producing PBMC; allergic group
  IL-4 producing cells/200 000 PBMC after stimulation with 50 μM NiCl2: 137 cells/200 000 PBMC and 48 cells/200 000 PBMC and 19 cells/200 000 PBMC and 26 cells/200 000 PBMC and 127 cells/200 000 PBMC and 27 cells/200 000 PBMC and 60 cells/200 000 PBMC and 9 cells/200 000 PBMC and 8 cells/200 000 PBMC and 13 cells/200 000 PBMC and 23 cells/200 000 PBMC
  IL-4 producing cells/200 000 PBMC, 50-0: 134 cells/200 000 PBMC and 47 cells/200 000 PBMC and 17 cells/200 000 PBMC and 21 cells/200 000 PBMC (2×) and 118 cells/200 000 PBMC and 25 cells/200 000 PBMC and 55 cells/200 000 PBMC and 5 cells/200 000 PBMC and 7 cells/200 000 PBMC and 12 cells/200 000 PBMC
  IL-4 producing cells/200 000 PBMC after stimulation with 100 μM NiCl2: 21 cells/200 000 PBMC and 28 cells/200 000 PBMC (2×) and 122 cells/200 000 PBMC and 30 cells/200 000 PBMC and 63 cells/200 000 PBMC and 16 cells/200 000 PBMC and 18 cells/200 000 PBMC and 24 cells/200 000 PBMC
  IL-4 producing cells/200 000 PBMC, 100-0: 19 cells/200 000 PBMC and 23 cells/200 000 PBMC (2×) and 113 cells/200 000 PBMC and 28 cells/200 000 PBMC and 58 cells/200 000 PBMC and 12 cells/200 000 PBMC and 17 cells/200 000 PBMC and 25 cells/200 000 PBMC
IL-4 producing PBMC; non-allergic group
  IL-4 producing cells/200 000 PBMC after stimulation with 50 μM NiCl2: 3 cells/200 000 PBMC (2×) and 4 cells/200 000 PBMC (2×) and 9 cells/200 000 PBMC and 7 cells/200 000 PBMC and 1 cells/200 000 PBMC and 2 cells/200 000 PBMC (2×)
  IL-4 producing cells/200 000 PBMC, 50-0: 1 cells/200 000 PBMC and 2 cells/200 000 PBMC and 4 cells/200 000 PBMC and 0 cells/200 000 PBMC (6×)
  IL-4 producing cells/200 000 PBMC after stimulation with 100 μM NiCl2: 5 cells/200 000 PBMC and 8 cells/200 000 PBMC (2×) and 4 cells/200 000 PBMC (2×) and 14 cells/200 000 PBMC and 1 cells/200 000 PBMC and 6 cells/200 000 PBMC
  IL-4 producing cells/200 000 PBMC, 100-0: 3 cells/200 000 PBMC (2×) and 1 cells/200 000 PBMC (2×) and 5 cells/200 000 PBMC and 2 cells/200 000 PBMC and 0 cells/200 000 PBMC and 4 cells/200 000 PBMC
IL-5 producing PBMC; [2]
  IL-5 production in response to NiCl2 (ELISpot): shown to produce
IL-5 producing PBMC; [3]
  IL-5 production in response to NiCl2 (ELISpot): this was not seen
IL-13 producing PBMC; [2]
  IL-13 production in response to NiCl2 (ELISpot): shown to produce
IL-13 producing PBMC; [3]
  IL-13 production in response to NiCl2 (ELISpot): this was not seen

## Cn1sccc1=O [Kathon, methylisothiazolinone]
IL-4 producing PBMC; [4]
  Number of responding cells (spots) per 200,000 cells, IL-4: 14 spots per 200,000 cells and 21 spots per 200,000 cells and 0 spots per 200,000 cells and 3 spots per 200,000 cells
IL-5 producing PBMC; [4]
  Number of responding cells (spots) per 200,000 cells, IL-5: 3 spots per 200,000 cells and 5 spots per 200,000 cells and 0 spots per 200,000 cells and 2 spots per 200,000 cells
IFN-γ producing PBMC
  Number of responding cells (spots) per 200,000 cells, IFN-gamma: 39 spots per 200,000 cells and 113 spots per 200,000 cells and 0 spots per 200,000 cells and 21 spots per 200,000 cells
[1]; Kathon (methylisothiazolinone), non-allergic controls
  Patch test response: None of the controls responded positively
IL-13 producing PBMC; [4]
  Number of responding cells (spots) per 200,000 cells, IL-13: 51 spots per 200,000 cells and 50 spots per 200,000 cells and 0 spots per 200,000 cells and 19 spots per 200,000 cells

## O=S(=O)([O-])[O-].[Ni+2] [NiSO4]
[1]; 5% NiSO4 in petrolatum, non-allergic group, one line per subject
  Patch test reactivity: None of the controls responded positively

— patent publication US8278054B2, “Diagnosis of metal allergy through cytokine release by T-cells in vitro” (Mabtech AB, priority 2001, dated 2012)
